One assay concerns the target T1, human GLP-1 receptor (Homo sapiens, UniProt P43220).
T1 construct: HA (N); expressed in transfected cells
Description: GLP-1 receptor-mediated agonist activity: cAMP level in hGLP-1R/HEK293 cell line (HTRF). It counts as cell-based. The settings on record: cAMP levels in hGLP-1R/HEK293 cell line; Table 1; read-out: determined EC50.

The target of the next assay is hERG potassium channels (Homo sapiens, UniProt Q12809). The experiment in a line: cell-based. As to the method:
CHO cells expressing hERG protein were cultured in 175 cm^2 culture flasks. When the cell density grew to 60-80%, the culture medium was removed, the cells were washed once with 7 mL PBS, and then 3 mL Detachin was added for digestion. After digestion was complete, 7 mL of culture medium was added to neutralize, then centrifuged. The supernatant was aspirated, and 5 mL of culture medium was added to resuspend to ensure that the cell density is 2-5×10^6/mL.
Both the single-cell high-impedance sealing and whole-cell mode formation processes were automatically completed by the Qpatch instrument. After obtaining the whole-cell recording mode, the cell was clamped at -80 mV. Before a 5-second +20 mV depolarizing stimulus was given, a 50-ms -50 mV pre-voltage was given, and then the cell was repolarized to -50 mV for 5 seconds and then returned to -80 mV. This voltage stimulation was applied every 15 seconds. After recording for 2 minutes, the extracellular solution was recorded for 2 minutes. Then the drug administration process began. The compound concentration started from the lowest tested concentration. Each tested concentration was given for 2 minutes. […] At least three cells were tested for each concentration (n≥3).
The compound stock solution was diluted with extracellular fluid, 5 µL of 20 mM compound stock solution was added to 2495 µL extracellular fluid, diluted 500 times to 40 µM, and then serially diluted 3 times in extracellular fluid containing 0.2% DMSO (v/v) to obtain the final concentration to be tested.
The experimental data were analyzed by XLFit software.

A further assay relates to β-arrestin 1. Description: NanoBiT recruitment of β-arrestin 1 by GLP-1R in HEK293 cells.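 Further: 100% equals the maximal response of endogenous GLP-1.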 It counts as cell-based. The note with it: Homo sapiens, read-out: maximum agonistic effect (Emax) recruiting β-arrestin 1. The text has this:
(§1) The Promega NanoBiT protein-protein reaction system was used to detect the recruitment of β-arrestin 1 and β-arrestin 2 by GLP-1R. The NanoBit Protein-Protein Reaction System was a dual-subunit system based on NanoLuc luciferase that could be used to detect protein-protein interactions in cells. The LgBiT (17.6 kDa) and SmBiT (11 amino acids) subunits were fused to the proteins of interest, respectively. When the proteins of interest interact, the two subunits came into close proximity to form an enzyme with catalytic activity, which could catalyze the luminescence of the luciferase substrate. Firstly, the human GLP-1R gene was connected to the N-terminus of LgBit, the β-arrestin 1/2 gene was cloned to the C-terminus of SmBit, and the fusion protein was introduced into the pcDNA3.0 vector to construct plasmids expressing hGLP-1R-LgBit and SmBit-β-arrestin 1/2 fusion proteins. The hGLP-1R-LgBit plasmid and SmBit-β-arrestin 1 (or SmBit-β-arrestin 2) plasmid were co-transfected into HEK293 cells at a ratio of 1 µg plasmid/2×10^6 cells. Immediately after transfection, the cells were added to a 96-well white-bottom plate at a density of 4×10^5 cells/well, and the cells were cultured in an incubator (37°C, 5% CO2) for 20 hours.
(§2) After 20 hours, the liquid in the wells was discarded, 40 µL of fresh culture medium (DMEM+0.2% BSA, m/v) was added first, and then 10 µL of Nano-Glo Live Cell detection solution (Promega, #N2011) was added, and then the cells were placed in an incubator and incubated for 10 minutes. The compound was dissolved in DMSO and prepared into a storage solution with a concentration of 10mM. The experiment started with a concentration of 100µM. […] After the cells were incubated for 10 min, 25 µL of culture medium containing the compound was added to each well and incubated at room temperature for 5 min. The fluorescence signal was then detected using an Envision 2104 multi-function microplate reader (PerkinElmer). All samples were tested in triplicate, and the fluorescence signal ratio and the corresponding compound concentration were analyzed using GraphPad Prism 8 software.

A further assay relates to β-arrestin 2. Description: NanoBiT recruitment of β-arrestin 2 by GLP-1R in HEK293 cells.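 Further: 100% equals the maximal response of endogenous GLP-1.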 It counts as cell-based. The settings on record: Homo sapiens, read-out: maximum agonistic effect (Emax) recruiting β-arrestin 2.
Description: as §1, §2

SMILES strings stand for the structures.

T1 sequence (P43220 24-463): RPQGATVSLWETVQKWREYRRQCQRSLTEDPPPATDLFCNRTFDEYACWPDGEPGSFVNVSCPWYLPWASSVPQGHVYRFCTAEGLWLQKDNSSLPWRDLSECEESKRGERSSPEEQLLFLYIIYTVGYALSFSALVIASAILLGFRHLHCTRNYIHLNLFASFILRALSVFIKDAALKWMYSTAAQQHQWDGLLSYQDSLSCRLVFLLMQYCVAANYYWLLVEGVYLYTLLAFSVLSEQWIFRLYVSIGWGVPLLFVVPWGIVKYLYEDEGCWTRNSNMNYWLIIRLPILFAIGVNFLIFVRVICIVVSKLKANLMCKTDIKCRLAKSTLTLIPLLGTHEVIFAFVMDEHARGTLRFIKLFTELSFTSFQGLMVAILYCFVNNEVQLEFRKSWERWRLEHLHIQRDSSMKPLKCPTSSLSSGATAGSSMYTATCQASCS
hERG potassium channels, sequence (Q12809 whole entry): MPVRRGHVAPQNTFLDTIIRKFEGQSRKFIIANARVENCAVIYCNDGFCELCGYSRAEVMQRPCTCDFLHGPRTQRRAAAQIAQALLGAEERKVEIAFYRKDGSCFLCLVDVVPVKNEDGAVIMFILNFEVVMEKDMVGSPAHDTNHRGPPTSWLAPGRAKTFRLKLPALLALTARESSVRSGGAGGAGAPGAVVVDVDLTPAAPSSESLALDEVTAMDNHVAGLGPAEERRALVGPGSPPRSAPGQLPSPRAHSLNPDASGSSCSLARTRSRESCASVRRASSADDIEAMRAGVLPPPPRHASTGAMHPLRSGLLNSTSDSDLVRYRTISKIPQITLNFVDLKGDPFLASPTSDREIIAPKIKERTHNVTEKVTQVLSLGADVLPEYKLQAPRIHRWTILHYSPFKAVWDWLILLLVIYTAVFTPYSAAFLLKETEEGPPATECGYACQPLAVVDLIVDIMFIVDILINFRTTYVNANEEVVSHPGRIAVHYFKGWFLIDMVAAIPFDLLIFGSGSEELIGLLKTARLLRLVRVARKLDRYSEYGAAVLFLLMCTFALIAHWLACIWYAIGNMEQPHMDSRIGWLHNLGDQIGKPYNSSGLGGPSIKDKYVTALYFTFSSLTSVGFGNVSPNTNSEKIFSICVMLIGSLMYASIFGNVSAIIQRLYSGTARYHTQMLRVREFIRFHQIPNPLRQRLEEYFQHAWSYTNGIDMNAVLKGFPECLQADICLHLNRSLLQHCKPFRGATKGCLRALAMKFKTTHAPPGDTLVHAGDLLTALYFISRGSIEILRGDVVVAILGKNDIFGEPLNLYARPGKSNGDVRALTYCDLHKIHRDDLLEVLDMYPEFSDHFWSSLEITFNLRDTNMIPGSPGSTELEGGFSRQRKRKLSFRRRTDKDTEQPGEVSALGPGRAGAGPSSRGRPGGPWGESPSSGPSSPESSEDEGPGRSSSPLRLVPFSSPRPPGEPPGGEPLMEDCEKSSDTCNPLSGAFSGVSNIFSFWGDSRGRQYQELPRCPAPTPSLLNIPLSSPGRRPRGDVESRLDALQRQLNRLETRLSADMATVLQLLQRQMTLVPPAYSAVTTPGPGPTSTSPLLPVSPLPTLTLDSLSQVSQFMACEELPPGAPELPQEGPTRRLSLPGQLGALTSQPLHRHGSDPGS

Consider `[2H]C([2H])([2H])C([2H])([2H])Oc1cc(C(=O)O)cc2c1nc(CN1CCN(c3cccc4c3OC(C)(c3ccc(C(F)(F)F)cc3F)O4)C=N1)n2C[C@@H]1CCO1` (stereo partly drawn) [Compound 82], for which the EC50 (as a rule, the concentration needed to bring the measured effect to its halfway point) on human GLP-1 receptor came to 13.1 pM. Moreover, on hERG potassium channels, the IC50 – broadly, the concentration that gives 50% inhibition – is above 40 µM.
The corresponding values for `[2H]C([2H])([2H])Oc1cc(C(=O)O)cc2c1nc(CN1CCC(c3cccc4c3OC(C)(c3ccc(C(F)(F)F)cn3)O4)CC1)n2C[C@@H]1CCO1` (stereo partly drawn) [Compound 67, 4-(methoxy-d3)-2-((4-(2-methyl-2-(5-(trifluoromethyl)pyridin-2-yl)benzo[d][1,3]dioxol-4-yl)piperidin-1-yl)methyl)-1-(((S)-oxetan-2-yl)methyl)-1H-benzo[d]imidazole-6-carboxylic acid] are 14.1 pM and above 40 µM.
The corresponding values for `[2H]C([2H])([2H])C([2H])([2H])Oc1cc(C(=O)O)cc2c1nc(CN1CCN(c3cccc4c3OC(C)(c3ccc(Cl)cn3)O4)C=N1)n2C[C@@H]1CCO1` (stereo partly drawn) [Compound 73, 2-((4-(2-(5-chloropyridin-2-yl)-2-methylbenzo[d][1,3]dioxol-4-yl)-5,6-dihydro-1,2,4-triazin-1(4H)-yl)methyl)-4-(ethoxy-d5)-1-(((S)-oxetan-2-yl)methyl)-1H-benzo[d]imidazole-6-carboxylic acid] are 8.4 pM and above 40 µM.
For `[2H]C([2H])([2H])Oc1cc(C(=O)O)cc2c1nc(CN1CCC(c3cccc4c3OC(C)(c3ccc(Cl)cn3)O4)CC1)n2C[C@@H]1CCO1` (stereo partly drawn) [Compound 61, 2-((4-(2-(5-chloropyridin-2-yl)-2-methylbenzo[d][1,3]dioxol-4-yl)piperidin-1-yl)methyl)-4-(methoxy-d3)-1-(((S)-oxetan-2-yl)methyl)-1H-benzo[d]imidazole-6-carboxylic acid], on human GLP-1 receptor, the EC50 was determined as 10.3 pM. For the same molecule, the IC50 on hERG potassium channels is above 40 µM.
With `O=C(O)c1cc(F)c2nc(CN3CCN(c4cccc(OCc5ccc(Cl)cc5F)n4)C=N3)n(C[C@@H]3CCO3)c2c1` [CN2022114139828 , Compound 2, reference compound], the Emax with β-arrestin 1 and with β-arrestin 2 was 75 to 80% in each case.
Consider `COc1cc(C(=O)O)cc2c1nc(CN1CCN(c3cccc(OCc4ccc(Cl)cc4F)n3)C=N1)n2C[C@@H]1CCO1` [Compound 17, (S)-2-((4-(6-((4-chloro-2-fluorobenzyl)oxy)pyridin-2-yl)-5,6-dihydro-1,2,4-triazin-1(4H)-yl)methyl)-4-methoxy-1-(oxetan-2-ylmethyl)-1H-benzo[d]imidazole-6-carboxylic acid], for which the EC50 at human GLP-1 receptor was found to be 4.7 pM. The molecule also yielded an IC50 against hERG potassium channels above 40 µM.
The corresponding values for `COc1cc(C(F)(F)F)ccc1COc1cccc(N2C=NN(Cc3nc4c(OC)cc(C(=O)O)cc4n3C[C@@H]3CCO3)CC2)n1` [Compound 23, (S)-4-methoxy-2-((4-(6-((2-methoxy-4-(trifluoromethyl)benzyl)oxy)pyridin-2-yl)-5,6-dihydro-1,2,4-triazin-1(4H)-yl)methyl)-1-(oxetan-2-ylmethyl)-1H-benzo[d]imidazole-6-carboxylic acid] are 1.5 pM and above 40 µM.
Turning to `[2H]C([2H])([2H])C([2H])([2H])Oc1cc(C(=O)O)cc2c1nc(CN1CCN(c3cccc4c3OC(C)(c3ccc(Cl)cc3F)O4)C=N1)n2C[C@@H]1CCO1` (stereo partly drawn) [Compound 76, 2-((4-(2-(4-chloro-2-fluorophenyl)-2-methylbenzo[d][1,3]dioxol-4-yl)-5,6-dihydro-1,2,4-triazin-1(4H)-yl)methyl)-4-(ethoxy-d5)-1-(((S)-oxetan-2-yl)methyl)-1H-benzo[d]imidazole-6-carboxylic acid], the EC50 at human GLP-1 receptor was found to be 4.5 pM. In addition, the IC50 against hERG potassium channels was above 40 µM.
The corresponding values for `CCOc1cc(C(=O)O)cc2c1nc(CN1CCN(c3cccc4c3OC(C)(c3ccc(C(F)(F)F)cc3F)O4)C=N1)n2C[C@@H]1CCO1` (stereo partly drawn) [Compound 81, 4-ethoxy-2-((4-(2-(2-fluoro-4-(trifluoromethyl)phenyl)-2-methylbenzo[d][1,3]dioxol-4-yl)-5,6-dihydro-1,2,4-triazin-1(4H)-yl)methyl)-1-(((S)-oxetan-2-yl)methyl)-1H-benzo[d]imidazole-6-carboxylic acid] are 8.4 pM and above 40 µM.
The corresponding values for `COc1cc(C(=O)O)cc2c1nc(CN1CCN(c3cccc4c3OC(C)(c3ccc(Cl)cc3F)O4)C=N1)n2C[C@@H]1CCO1` (stereo partly drawn) [Compound 63, 2-((4-(2-(4-chloro-2-fluorophenyl)-2-methylbenzo[d][1,3]dioxol-4-yl)-5,6-dihydro-1,2,4-triazin-1(4H)-yl)methyl)-4-methoxy-1-(((S)-oxetan-2-yl)methyl)-1H-benzo[d]imidazole-6-carboxylic acid] are 15.2 pM and above 40 µM.
For the molecule `COc1cc(Cl)ccc1C1(C)Oc2cccc(N3C=NN(Cc4nc5c(OC)cc(C(=O)O)cc5n4C[C@@H]4CCO4)CC3)c2O1` (stereo partly drawn) [Compound 83, 2-((4-(2-(4-chloro-2-methoxyphenyl)-2-methylbenzo[d][1,3]dioxol-4-yl)-5,6-dihydro-1,2,4-triazin-1(4H)-yl)methyl)-4-methoxy-1-(((S)-oxetan-2-yl)methyl)-1H-benzo[d]imidazole-6-carboxylic acid], the EC50 on human GLP-1 receptor was found to be 9.2 pM.
Consider `CCOc1cc(C(=O)O)cc2c1nc(CN1CCN(c3cccc(OCc4ccc(C#N)cc4F)n3)C=N1)n2C[C@@H]1CCO1` [Compound 9, (S)-2-((4-(6-((4-cyano-2-fluorobenzyl)oxy)pyridin-2-yl)-5,6-dihydro-1,2,4-triazin-1(4H)-yl)methyl)-4-ethoxy-1-(oxetan-2-ylmethyl)-1H-benzo[d]imidazole-6-carboxylic acid], for which the EC50 at human GLP-1 receptor was 1.2 pM. For the same molecule, the IC50 against hERG potassium channels was above 40 µM.
Turning to `N#Cc1ccc(COc2cccc(N3C=NN(Cc4nc5c(OC(F)F)cc(C(=O)O)cc5n4C[C@@H]4CCO4)CC3)n2)c(F)c1` [Compound 11, (S)-2-((4-(6-((4-cyano-2-fluorobenzyl)oxy)pyridin-2-yl)-5,6-dihydro-1,2,4-triazin-1(4H)-yl)methyl)-4-(difluoromethoxy)-1-(oxetan-2-ylmethyl)-1H-benzo[d]imidazole-6-carboxylic acid], the EC50 at human GLP-1 receptor was found to be 13.3 pM.
The same measure, in the same setting: to `[2H]C([2H])([2H])Oc1cc(C(=O)O)cc2c1nc(CN1CCC(c3cccc4c3OC(C)(c3ccc(Cl)cc3F)O4)CC1)n2C[C@@H]1CCO1` (stereo partly drawn) [Compound 74, 2-((4-(2-(4-chloro-2-fluorophenyl)-2-methylbenzo[d][1,3]dioxol-4-yl)piperidin-1-yl)methyl)-4-(methoxy-d3)-1-(((S)-oxetan-2-yl)methyl)-1H-benzo[d]imidazole-6-carboxylic acid] belongs 6.5 pM; to `COc1cc(C(=O)O)cc2c1nc(CN1CCC(c3ccccc3OCc3ccc(Cl)cc3F)CC1)n2C[C@@H]1CCO1` [Compound 48, (S)-2-((4-(2-((4-chloro-2-fluorobenzyl)oxy)phenyl)piperidin-1-yl)methyl)-4-methoxy-1-(oxetan-2-ylmethyl)-1H-benzo[d]imidazole-6-carboxylic acid], 43.4 pM; to `CCOc1cc(C(=O)O)cc2c1nc(CN1CCN(c3cccc4c3OC(C)(c3cc(F)c(Cl)cc3F)O4)C=N1)n2C[C@@H]1CCO1` (stereo partly drawn) [Compound 79, 2-((4-(2-(4-chloro-2,5-difluorophenyl)-2-methylbenzo[d][1,3]dioxol-4-yl)-5,6-dihydro-1,2,4-triazin-1(4H)-yl)methyl)-4-ethoxy-1-(((S)-oxetan-2-yl)methyl)-1H-benzo[d]imidazole-6-carboxylic acid], 44.2 pM.

These data come from patent publication EP4650353A1 (Shanghai Institute of Materia Medica, Chinese Academy of …, priority 2023, dated 2024).
